Measured values as given in US20260216085A1, “NANOPARTICLES TO ENHANCE THE EFFECTS OF DRUGS FOR THE TREATMENT OF CANCER” (UNIVERSIDAD DE GRANADA, priority 2022, published 2026).

Experiments:
[1] = Release kinetics / degradation of OLA and AA in PBS by UV-Vis; type: physicochemical; conditions: buffer, pH 7.4
Description: Briefly, 0.9 mg of NP was weighed into a quartz cuvette and then 3 mL of PBS solution (pH=7.4) was carefully added to the cuvette. The absorbance curve from 200 nm to 400 nm was measured continuously every half hour until the plateau was reached. The amount of OLA and ascorbic acid released was determined at wavelengths of 311 nm and 265 nm, respectively. This technique allowed simultaneous quantification of the two molecules by monitoring the absorbance at 311 nm (OLA) and 265 nm (AA) (FIG. 1).
All measurements were performed in triplicate.
The degradation of AA followed an exponential decay according to the equation y(t)=e^−t/τ, where τ corresponds to the half-life of the molecule.

[2] = test system: PANC-1; assay: Cytotoxicity, Sulforhodamine B proliferation assay; type: cell-based, Human
Description: Human pancreatic ductal adenocarcinoma cell lines MIA PaCa-2 and PANC1 and the murine pancreatic cancer cell line Panc02 were used. All cell lines were cultured in Dulbecco's modified Eagle medium (DMEM) supplemented with 10% fetal bovine serum and 1% streptomycin penicillin (Sigma-Aldrich). Cells were maintained in monolayer culture in an atmosphere of 37° C. and 5% CO2 and passaged using 0.25% trypsin and 0.02% EDTA.
Panc02, PANC-1 and MIA PaCa-2 cell lines were treated with NP-ACP-OLA and NP-ACP-OLA-AA to determine their cytotoxic effect. The toxicity of NP-ACP and NP-ACP-AA (controls) was tested in all cell lines. For this, PANC-1 cells were seeded at densities of 8×10^3 cells/well and Panc02 and MIA PaCa-2 cells at densities of 2.5×10^3 cells/well in 48-well plates, incubated overnight and exposed to DMSO (OLA solvent), OLA (in different concentration ranges depending on the cell line used), NPs with and without OLA and ascorbic acid for 72 h. Subsequently, the cells were fixed with 10% trichloroacetic acid for 20 minutes and washed three times with distilled water. […] Finally, the optical density (OD) of the dye was measured with a Titertek Multiskan colorimeter (Flow) at 492 nm. Proliferation percentages (Pf %) were calculated as: Pf %=(OD of sample/OD of negative control)×100. […]

[3] = test system: PANC-1 cell migration; assay: Cell migration assay; type: cell-based, Human; conditions: PANC-1, Cl25 of OLA, monitored 72 h
Description: PANC-1 cell migration is a phenomenon related to PARP1 inhibition. To study the effect of NP-ACP-OLA-AA with respect to free OLA and OLA-NPs, the following treatment was carried out with the PANC-1 cell line. NP-ACP-AA was used as a control.
The PANC- 1 cell line was seeded in a 12-well plate (Thermo Fisher) and grown to 95-100% confluence in medium supplemented with DMEM (Sigma-Aldrich). Then, a […] was manually performed using a pipette tip. The next day, dead cells were removed using phosphate buffered saline (PBS) and the culture medium was replaced with DMEM without FBS to prevent cell proliferation. Then, Cl25 of OLA concentration (free and OLA-NPs) was added to the wells and the cells were incubated for 72 h during which the migratory process was monitored using a DM-IL LED microscope. The percentage of migration was calculated by measuring the tumor cell free area at different times using ImageJ software with the Chemotaxis and Migration Tool add-on.

[4] = test system: PANC-1-induced tumors; assay: In vivo tumor growth and survival, mice with PANC-1-induced tumors; conditions: 25 mg/kg OLA intraperitoneally every 3 days, 10 cycles
Description: Male and female NOD scid gamma mice generated by the Centro de Instrumentación Científica of the University of Granada were used for the in vivo study. All mice (body weight: 20-25 g) were housed in cages with free access to water and food prior to the experiments and were maintained under controlled temperature, light and humidity (22.0±2° C., 12 h light-dark cycle and 40-70% relative humidity), in specific pathogen-free conditions with sterile atmosphere controlled by HEPA filters. The study was approved by the Ethical Committee for Animal Experimentation of the University of Granada (reference code: 16/01/2020/005) and was performed in accordance with its guidelines. Tumors were induced by subcutaneous injection of 9×10^5 cells derived from the PANC1 cell line into the right flank of NOD-SCID gamma mice. When the tumor was palpable, animals were randomly divided into four groups (n=8-10 mice per group, selecting the tumor-inducing mice): PANC1 mice treated with OLA solvent-(group I), OLA (group II), NP-ACP-AA (group III) and NP-ACP-OLA-AA (group IV). The OLA solvent was 5% DMSO, 40% PEG300, 5% Tween-80 and 50% saline and the NPs were dispersed in saline. […] Weights and deaths were carefully recorded throughout the period and tumor volume was measured with a digital caliper. Tumor volume (mm^3) was calculated as follows: V (mm^3)=(a×b2×π)/6. […]

| time AA remained before being degraded ([1]; 10.5 ppm) [h] | half-life at 10.5 ppm [1] [h] | SMILES | Cl50 in PANC-1 higher than in MIA PaCa-2 ([2]; PANC-1 vs MIA PaCa-2) [times] | Cl50 in PANC-1 higher than in Panc02 ([2]; PANC-1 vs Panc02) [times] | inhibition of cell migration compared to untreated cells [3] | decrease in tumor volume compared to untreated control mice [4] [%] | survival of mice [4] [%] |
| --- | --- | --- | --- | --- | --- | --- | --- |
| ≤ 12 | 2.7 | O=C1O[C@H]([C@@H](O)CO)C(O)=C1O [AA, ascorbic acid] | – | – | – | – | – |
| – | – | O=C(c1cc(Cc2n[nH]c(=O)c3ccccc23)ccc1F)N1CCN(C(=O)C2CC2)CC1 [OLA, Olaparib] | 8.5 | 7.5 | inhibited migration only at 72 hours | 28.3 | 44 |
